Experimental data as given in patent US20100099714A1, “AMPA and NMDA Receptor Antagonists for Neurodegenerative Diseases” (Eisai R&D Management Co., Ltd., priority 2007, published 2010).

Tests used:
[1] = Pharmacokinetic study of memantine, plasma concentration after single dose; assay type: in vivo, human; conditions: corresponds to 20-25 ng/ml at 20 mg single dose
Description: The efficacy of memantine in a variety of dementias has been shown in clinical trials. Memantine is considered to be a promising neuroprotective drug for the treatment of dementias, particularly Alzheimer's disease (Jain K K, Evaluation of memantine for neuroprotection in dementia. Expert Opin Investig Drugs 2000; 9(6): 1397-406.). Clinical dosage of mamentine is 20 mg/day. Maximal plasma concentration of memantine at 20 mg was at around 20-25 ng/ml after single dose treatment (Periclou A, et al., Pharmacokinetic study of memantine in healthy and renally impaired subjects. Clin Pharmacol Ther 2006; 79: 134-43.). This plasma concentration roughly correspond to 0.1 μM.

[2] = test system: Cortical cell cultures; assay: NMDA and kainate-induced toxicity, MTT assay of cell viability; assay type: cell-based, rat; conditions: for protection of neuron from excitotoxicity induced by combination treatment with kainate and NMDA: 100 μM NMDA and 100 μM kainate for 24 h, monotherapy, FIG. 1A, B
Description: Cortical cell cultures were prepared from fetal rats of the Wistar strain (gestational age of 17 to 19 days, Charles River Japan, Kanagawa, Japan). The cortex was dissected and kept in Neurobasal medium (Invitrogen Corp., Carlsbad, Calif., USA) containing 2% B27 supplement (Invitrogen), 25 μM 2-mercaptoethanol (Wako), 0.5 mM L-glutamine (Invitrogen) and ×1/100 volume of antibiotic-antimycotic (Invitrogen), then incubated at 37° C. for 30 min in Ca^2+/Mg^2+ free Hank's balanced salt solution (MSS; 10 mM HEPES, pH 7.3) containing 0.25% trypsin (Invitrogen) and 0.2 mg/ml deoxyribonuclease (DNase) (Sigma). The cortical tissues were dissociated to single cells by gentle trituration. The cell suspension was centrifuged at 310×g for 3 min and the resulting pellets were resuspended in the medium described above.
The cells were plated at an initial cell density of 5×10^5 cells/cm^2 in poly-L-lysine (Sigma)-coated 96-well plates. The cells were cultured in a CO2 incubator (5% (v/v), at 37° C. in the Neurobasal medium described above for 7 days, and cultured following 4 days in culture medium without antioxidant B27 supplement and 2-mercaptoethanol. The cultures were exposed to 100 μM of N-methyl-D-aspartate (NMDA)(Sigma) and 100 μM of kainate (Sigma) for 24 h at 37° C. The cells were treated with perampanel (0.03, 0.3, 3 or 30 μM) and memantine HCl (0.1, 1, 10 or 100 μM) for 24 h before and during the exposure to these agonists. In the combination experiment, perampanel at […] or memantine at 10 μM or its combination was used.
Viability of cells grown in 96-well plates was measured by 3-[4,5-dimethylthylthiazol-2-yl]-2,5-diphenyltetrazolium bromide (MTT) assay. The 10 μl of 8 mg/ml MTT (Sigma) solution in D-PBS(−) (Dulbecco's phosphate-buffered saline, Sigma) was added to each well. During 10 min incubation at 37° C., the active dehydrogenase in viable mitochondria reduces the tetrazolium ring of MTT, forming a blue-colored precipitate. The cells were lysed and the precipitate was dissolved in […] of MTT solubilizing buffer containing 20% sodium dodecyl sulfate (SDS: Wako) in 50% N,N-dimethyl formamide at pH 4.7, and quantified spectrophotometrically at 550-690 nm.
Wells without cells, containing only the medium and MTT solution, were measured to obtain the background value, which was subtracted from measured values at 550-690 nm, as follows: % of Recovery=(sample−NMDA/Kainate treated control)/(non-treated control−NMDA/Kainate treated control)×100.
The data were analyzed with one-way analysis of variance (ANOVA) followed by Dunnett's multiple comparison test using the software package SAS ver. 8.2 (SAS Institute Japan Ltd., Tokyo, Japan).

[3] = 40 mg/day compared to 20 mg/day; cited from earlier work
[4] = 20 mg, single dose treatment; cited from earlier work
[5] = test system: Alzheimer's disease; conditions: Alzheimer's disease trials; cited from earlier work
[6] = clinically relevant concentration, roughly 0.1 μM

For C[C@]12CC3C[C@](C)(C1)C[C@@](N)(C3)C2 [memantine, 1-amino-3,5-dimethyl-adamantane], which “plasma concentration converted to molar” value [1] is on record?
Its value is roughly 100 nM.

And the “protection of neuron from excitotoxicity induced by combination treatment with kainate and NMDA” value [2]?
Its value is “protected neuron from excitotoxicity”.

What about the “effect size at clinically relevant concentration” value [2, 6] of the same compound?
Its value is “small and far below maximal effect”.

And the “neuroprotective effect at clinically relevant concentration” value [2, 6]?
Its value is “significant neuroprotective effect”.

And the “risk of adverse event” value [3]?
The value was “higher risk of adverse event”.

What about the Maximal plasma concentration [4] of the same compound?
The Maximal plasma concentration was 20 to 25 ng/mL.

And the clinical effect [5]?
Its clinical effect is “modest”.

For N#Cc1ccccc1-c1cc(-c2ccccn2)cn(-c2ccccc2)c1=O [perampanel, 2-(2-oxo-1-phenyl-5-pyridin-2-yl-1,2-dihydropyridin-3-yl)benzonitrile], which “shape of the neuroprotective effect over concentration” value ([2]; 100 μM NMDA and 100 μM kainate) is on record?
Its value is “ceiling on the effect from lowest concentration showing neuroprotection”.

And the “protection of neuron from excitotoxicity induced by combination treatment with kainate and NMDA” value [2]?
Its value is “protected neuron from excitotoxicity”.
